Source: ChEMBL document CHEMBL3885881, “DrugMatrix”
Where “and” joins values, the source holds several entries; their conditions need not be identical. Equal values may be shown once.

Species on record: Rattus norvegicus
Experiment: DrugMatrix - Regimen: Daily Repeat
Type: toxicity, organism-based, Sprague-Dawley
Set-up: regimen Daily Repeat, gender Male, age 6-8 weeks
Conditions: in vivo, po, route oral GAVAGE, vehicle .5 % CMC; for BASOPHIL / EOSINOPHIL / ERYTHROCYTE COUNT / HEMATOCRIT / HEMOGLOBIN / LEUKOCYTE COUNT / LYMPHOCYTE / MEAN CORPUSCULAR HEMOGLOBIN / MEAN CORPUSCULAR HEMOGLOBIN CONCENTRATION / MEAN CORPUSCULAR VOLUME / MONOCYTE / NEUTROPHIL / PLATELET COUNT / ABSOLUTE BASOPHIL / ABSOLUTE EOSINOPHIL / ABSOLUTE LYMPHOCYTE / ABSOLUTE MONOCYTE / ABSOLUTE SEGMENTED NEUTROPHIL: tissue Blood; for ALANINE AMINOTRANSFERASE / ALBUMIN / ALKALINE PHOSPHATASE / ASPARTATE AMINOTRANSFERASE / BLOOD UREA NITROGEN / CHLORIDE / CHOLESTEROL / CREATINE PHOSPHOKINASE / CREATININE / GLUCOSE / PHOSPHORUS / POTASSIUM / SODIUM / TOTAL BILIRUBIN / TOTAL PROTEIN / LACTATE DEHYDROGENASE / LIPASE / URIC ACID: tissue Plasma
[1] = 0 mg/kg, 72 h, dose level Control, time 3 day
[2] = 0 mg/kg, 120 h, dose level Control, time 5 day
[3] = 0 mg/kg, 2184 h, dose level Control, time 91 day
[4] = 0 mg/kg, […], dose level Control, time 28 day
[5] = 0.0007 mg/kg, 120 h, dose level Low, time 5 day
[6] = 0.0007 mg/kg, 2184 h, dose level Low, time 91 day

## Clc1cc2c(cc1Cl)Oc1cc(Cl)c(Cl)cc1O2 [2,3,7,8-TETRACHLORODIBENZO-P-DIOXIN]
[1]
  BASOPHIL: 0.52%
  EOSINOPHIL: 0.48%
  ERYTHROCYTE COUNT: 6.68 x10E6/uL
  HEMATOCRIT: 43.07%
  HEMOGLOBIN: 13.48 G/DL
  LEUKOCYTE COUNT: 11.41 x10E3/uL
  LYMPHOCYTE: 80.78%
  MEAN CORPUSCULAR HEMOGLOBIN: 20.2 pg
  MEAN CORPUSCULAR HEMOGLOBIN CONCENTRATION: 31.32 G/DL
  MEAN CORPUSCULAR VOLUME: 64.45 fL
  MONOCYTE: 2.23%
  NEUTROPHIL: 14.73%
  PLATELET COUNT: 1225.83 x10E3/uL
  ALANINE AMINOTRANSFERASE: 44.5 u/L
  ALBUMIN: 3.62 G/DL
  ALKALINE PHOSPHATASE: 404.5 u/L
  ASPARTATE AMINOTRANSFERASE: 71.67 u/L
  BLOOD UREA NITROGEN: 15 mg/dL
  CHLORIDE: 103 MEQ/L
  CHOLESTEROL: 96.83 mg/dL
  CREATINE PHOSPHOKINASE: 236 u/L
  CREATININE: 0.43 mg/dL
  GLUCOSE: 186.83 mg/dL
  PHOSPHORUS: 12.67 mg/dL
  POTASSIUM: 7.1 MEQ/L
  SODIUM: 147.33 MEQ/L
  TOTAL BILIRUBIN: 0.52 mg/dL
  TOTAL PROTEIN: 6.18 G/DL
[2]
  ABSOLUTE BASOPHIL: 92 cells/µL
  ABSOLUTE EOSINOPHIL: 52 cells/µL
  ABSOLUTE LYMPHOCYTE: 6560 cells/µL
  ABSOLUTE MONOCYTE: 160 cells/µL
  ABSOLUTE SEGMENTED NEUTROPHIL: 1130 cells/µL
  BASOPHIL: 1.14% and 0.92%
  EOSINOPHIL: 0.68% and 0.43%
  ERYTHROCYTE COUNT: 7.51 x10E6/uL and 7.03 x10E6/uL
  HEMATOCRIT: 46.04% and 46.55%
  HEMOGLOBIN: 15.62 G/DL and 14.32 G/DL
  LEUKOCYTE COUNT: 8.03 x10E3/uL and 12.22 x10E3/uL
  LYMPHOCYTE: 81.54% and 82.65%
  MEAN CORPUSCULAR HEMOGLOBIN: 20.84 pg and 20.35 pg
  MEAN CORPUSCULAR HEMOGLOBIN CONCENTRATION: 33.94 G/DL and 30.77 G/DL
  MEAN CORPUSCULAR VOLUME: 61.42 fL and 66.28 fL
  MONOCYTE: 2% and 2.28%
  NEUTROPHIL: 14.24% and 12.73%
  PLATELET COUNT: 1427.2 x10E3/uL and 1268.67 x10E3/uL
  ALANINE AMINOTRANSFERASE: 35.6 u/L and 44.5 u/L
  ALBUMIN: 3.64 G/DL and 3.73 G/DL
  ALKALINE PHOSPHATASE: 233 u/L and 340.83 u/L
  ASPARTATE AMINOTRANSFERASE: 81 u/L and 66.5 u/L
  BLOOD UREA NITROGEN: 12 mg/dL and 13.33 mg/dL
  CHLORIDE: 109.4 MEQ/L and 102.17 MEQ/L
  CHOLESTEROL: 47.6 mg/dL and 82.17 mg/dL
  CREATINE PHOSPHOKINASE: 183.2 u/L and 146.67 u/L
  CREATININE: 0.4 mg/dL and 0.35 mg/dL
  GLUCOSE: 134.6 mg/dL and 186.17 mg/dL
  LACTATE DEHYDROGENASE: 89.4 u/L
  LIPASE: 17.2 u/L
  PHOSPHORUS: 13.02 mg/dL and 11.83 mg/dL
  POTASSIUM: 7 MEQ/L and 6.47 MEQ/L
  SODIUM: 149.6 MEQ/L and 148.83 MEQ/L
  TOTAL PROTEIN: 6.06 G/DL and 6.27 G/DL
  URIC ACID: 1.04 mg/dL
[3]
  ABSOLUTE BASOPHIL: 130 cells/µL
  ABSOLUTE EOSINOPHIL: 70 cells/µL
  ABSOLUTE LYMPHOCYTE: 8670 cells/µL
  ABSOLUTE MONOCYTE: 160 cells/µL
  ABSOLUTE SEGMENTED NEUTROPHIL: 1530 cells/µL
  BASOPHIL: 1.13%
  EOSINOPHIL: 0.66%
  ERYTHROCYTE COUNT: 9.13 x10E6/uL
  HEMATOCRIT: 48.47%
  HEMOGLOBIN: 16.56 G/DL
  LEUKOCYTE COUNT: 10.5 x10E3/uL
  LYMPHOCYTE: 81.63%
  MEAN CORPUSCULAR HEMOGLOBIN: 18.16 pg
  MEAN CORPUSCULAR HEMOGLOBIN CONCENTRATION: 34.14 G/DL
  MEAN CORPUSCULAR VOLUME: 53.14 fL
  MONOCYTE: 1.53%
  NEUTROPHIL: 14.71%
  PLATELET COUNT: 1280.22 x10E3/uL
  ALANINE AMINOTRANSFERASE: 28.89 u/L
  ALBUMIN: 3.69 G/DL
  ALKALINE PHOSPHATASE: 101.11 u/L
  ASPARTATE AMINOTRANSFERASE: 70.67 u/L
  BLOOD UREA NITROGEN: 16.78 mg/dL
  CHLORIDE: 104.56 MEQ/L
  CHOLESTEROL: 58.78 mg/dL
  CREATINE PHOSPHOKINASE: 91.22 u/L
  CREATININE: 0.61 mg/dL
  GLUCOSE: 142.33 mg/dL
  LACTATE DEHYDROGENASE: 81.67 u/L
  LIPASE: 13 u/L
  PHOSPHORUS: 7.54 mg/dL
  POTASSIUM: 6.27 MEQ/L
  SODIUM: 149.89 MEQ/L
  TOTAL BILIRUBIN: 0.19 mg/dL
  TOTAL PROTEIN: 7.12 G/DL
  URIC ACID: 0.97 mg/dL
[4]
  ABSOLUTE BASOPHIL: 150 cells/µL
  ABSOLUTE EOSINOPHIL: 54 cells/µL
  ABSOLUTE LYMPHOCYTE: 8890 cells/µL
  ABSOLUTE MONOCYTE: 190 cells/µL
  ABSOLUTE SEGMENTED NEUTROPHIL: 2250 cells/µL
  BASOPHIL: 1.26%
  EOSINOPHIL: 0.46%
  ERYTHROCYTE COUNT: 8.34 x10E6/uL
  HEMATOCRIT: 48.66%
  HEMOGLOBIN: 16.04 G/DL
  LEUKOCYTE COUNT: 11.58 x10E3/uL
  LYMPHOCYTE: 76.74%
  MEAN CORPUSCULAR HEMOGLOBIN: 19.2 pg
  MEAN CORPUSCULAR HEMOGLOBIN CONCENTRATION: 32.92 G/DL
  MEAN CORPUSCULAR VOLUME: 58.32 fL
  MONOCYTE: 1.76%
  NEUTROPHIL: 19.44%
  PLATELET COUNT: 1282.6 x10E3/uL
  ALANINE AMINOTRANSFERASE: 27 u/L
  ALBUMIN: 3.68 G/DL
  ALKALINE PHOSPHATASE: 146.2 u/L
  ASPARTATE AMINOTRANSFERASE: 66.6 u/L
  BLOOD UREA NITROGEN: 12.4 mg/dL
  CHLORIDE: 104.6 MEQ/L
  CHOLESTEROL: 59.6 mg/dL
  CREATINE PHOSPHOKINASE: 121.8 u/L
  CREATININE: 0.6 mg/dL
  GLUCOSE: 143 mg/dL
  LACTATE DEHYDROGENASE: 87.8 u/L
  LIPASE: 17.4 u/L
  PHOSPHORUS: 8.68 mg/dL
  POTASSIUM: 6.02 MEQ/L
  SODIUM: 152.8 MEQ/L
  TOTAL BILIRUBIN: 0.26 mg/dL
  TOTAL PROTEIN: 6.92 G/DL
  URIC ACID: 0.52 mg/dL
[5]
  ABSOLUTE BASOPHIL: 72 cells/µL
  ABSOLUTE EOSINOPHIL: 44 cells/µL
  ABSOLUTE LYMPHOCYTE: 8990 cells/µL
  ABSOLUTE MONOCYTE: 220 cells/µL
  ABSOLUTE SEGMENTED NEUTROPHIL: 1360 cells/µL
  BASOPHIL: 0.68%
  EOSINOPHIL: 0.38%
  ERYTHROCYTE COUNT: 7.39 x10E6/uL
  HEMATOCRIT: 46.1%
  HEMOGLOBIN: 15.68 G/DL
  LEUKOCYTE COUNT: 10.75 x10E3/uL
  LYMPHOCYTE: 83.64%
  MEAN CORPUSCULAR HEMOGLOBIN: 21.26 pg
  MEAN CORPUSCULAR HEMOGLOBIN CONCENTRATION: 34.02 G/DL
  MEAN CORPUSCULAR VOLUME: 62.42 fL
  MONOCYTE: 2.06%
  NEUTROPHIL: 12.68%
  PLATELET COUNT: 1506.2 x10E3/uL
  ALANINE AMINOTRANSFERASE: 30.8 u/L
  ALBUMIN: 3.64 G/DL
  ALKALINE PHOSPHATASE: 238.8 u/L
  ASPARTATE AMINOTRANSFERASE: 76.4 u/L
  BLOOD UREA NITROGEN: 11.4 mg/dL
  CHLORIDE: 107.8 MEQ/L
  CHOLESTEROL: 61.4 mg/dL
  CREATINE PHOSPHOKINASE: 181.6 u/L
  CREATININE: 0.5 mg/dL
  GLUCOSE: 115 mg/dL
  LACTATE DEHYDROGENASE: 69.6 u/L
  LIPASE: 31.8 u/L
  PHOSPHORUS: 11.8 mg/dL
  POTASSIUM: 6.66 MEQ/L
  SODIUM: 150.8 MEQ/L
  TOTAL BILIRUBIN: 0.14 mg/dL
  TOTAL PROTEIN: 6.08 G/DL
  URIC ACID: 0.72 mg/dL
[6]
  ABSOLUTE BASOPHIL: 270 cells/µL
  ABSOLUTE EOSINOPHIL: 140 cells/µL
  ABSOLUTE LYMPHOCYTE: 10000 cells/µL
  ABSOLUTE MONOCYTE: 280 cells/µL
  ABSOLUTE SEGMENTED NEUTROPHIL: 2090 cells/µL
  BASOPHIL: 2.13%
